According to ChEMBL document CHEMBL4507310, “Data for DCP probe A-1211212” (2021):

Tests used:
[1] = biological target: Serine/threonine-protein kinase TAO3 (Homo sapiens) (UniProt Q9H2K8); details: Compound concentration 1000.0 nM
[2] = biological target: Serine/threonine-protein kinase TAO2 (Homo sapiens) (UniProt Q9UL54); details: Compound concentration 1000.0 nM
[3] = biological target: Beta-2 adrenergic receptor (Homo sapiens) (UniProt P07550); test: Beta2 (h) Eurofins-Cerep binding assay; parameters: ligand concentration 0.3 nM; details: filed as antagonist, Compound concentration 10.0 uM
[4] = biological target: AP2-associated protein kinase 1 (Homo sapiens) (UniProt Q2M2I8); details: Compound concentration 1000.0 nM
[5] = biological target: Activin receptor type-1B (Homo sapiens) (UniProt P36896); details: Compound concentration 1000.0 nM
[6] = biological target: Histamine H1 receptor (Homo sapiens) (UniProt P35367); details: Compound concentration 10.0 uM
[7] = biological target: RAC-gamma serine/threonine-protein kinase (Homo sapiens) (UniProt Q9Y243); details: Compound concentration 1000.0 nM
[8] = biological target: Histamine H2 receptor (Homo sapiens) (UniProt P25021); details: Compound concentration 10.0 uM
[9] = biological target: Tyrosine-protein kinase Srms (Homo sapiens) (UniProt Q9H3Y6); details: Compound concentration 1000.0 nM
[10] = biological target: Serine/threonine-protein kinase Sgk1 (Homo sapiens) (UniProt O00141); details: Compound concentration 1000.0 nM
[11] = biological target: cGMP-dependent protein kinase 2 (Homo sapiens) (UniProt Q13237); details: Compound concentration 1000.0 nM
[12] = biological target: Ribosomal protein S6 kinase alpha-4 (Homo sapiens) (UniProt O75676); details: Compound concentration 1000.0 nM
[13] = biological target: BDNF/NT-3 growth factors receptor (Homo sapiens) (UniProt Q16620); details: Compound concentration 1000.0 nM
[14] = tested on: Epidermal growth factor receptor (Homo sapiens), P00533 [UNDEFINED MUTATION]; details: Compound concentration 1000.0 nM
[15] = biological target: Activin receptor type-2B (Homo sapiens) (UniProt Q13705); details: Compound concentration 1000.0 nM
[16] = biological target: Serine/threonine-protein kinase pim-3 (Homo sapiens) (UniProt Q86V86); details: Compound concentration 1000.0 nM
[17] = biological target: Homeodomain-interacting protein kinase 2 (Homo sapiens) (UniProt Q9H2X6); details: Compound concentration 1000.0 nM
[18] = biological target: Serine/threonine-protein kinase D2 (Homo sapiens) (UniProt Q9BZL6); details: Compound concentration 1000.0 nM
[19] = biological target: Motilin receptor (Homo sapiens) (UniProt O43193); test: motilin (h Eurofins-Cerep binding assay; parameters: ligand concentration 0.05 nM; details: filed as agonist, Compound concentration 10.0 uM
[20] = biological target: Calcium/calmodulin-dependent protein kinase type II subunit beta (Homo sapiens) (UniProt Q13554); details: Compound concentration 1000.0 nM
[21] = tested on: Receptor-type tyrosine-protein kinase FLT3 (Homo sapiens), P36888 [D835H]; details: Compound concentration 1000.0 nM
[22] = biological target: Mitogen-activated protein kinase kinase kinase 1 (Homo sapiens) (UniProt Q13233); details: Compound concentration 1000.0 nM
[23] = biological target: Cyclin-dependent kinase 4 (Homo sapiens) (UniProt P11802); details: Compound concentration 1000.0 nM
[24] = biological target: Non-receptor tyrosine-protein kinase TYK2 (Homo sapiens) (UniProt P29597); details: Compound concentration 1000.0 nM
[25] = tested on: Tyrosine-protein kinase ABL1 (Homo sapiens), P00519 [F317L]; details: Compound concentration 1000.0 nM
[26] = biological target: Ribosomal protein S6 kinase alpha-3 (Homo sapiens) (UniProt P51812); details: Compound concentration 1000.0 nM
[27] = biological target: Adenosine receptor A3 (Homo sapiens) (UniProt P0DMS8); test: A3 (h) Eurofins-Cerep binding assay; parameters: ligand concentration 0.15 nM; details: filed as agonist, Compound concentration 10.0 uM
[28] = biological target: Discoidin domain-containing receptor 2 (Homo sapiens) (UniProt Q16832); details: Compound concentration 1000.0 nM
[29] = biological target: TGF-beta receptor type-1 (Homo sapiens) (UniProt P36897); details: Compound concentration 1000.0 nM
[30] = biological target: Dual specificity mitogen-activated protein kinase kinase 5 (Homo sapiens) (UniProt Q13163); details: Compound concentration 1000.0 nM
[31] = tested on: Tyrosine-protein kinase ABL1 (Homo sapiens), P00519 [Q252H]; details: Compound concentration 1000.0 nM
[32] = biological target: Casein kinase I isoform alpha (Homo sapiens) (UniProt P48729); details: Compound concentration 1000.0 nM
[33] = biological target: 5-hydroxytryptamine receptor 1B (Homo sapiens) (UniProt P28222); test: 5-HT1B(h) Eurofins-Cerep binding assay; parameters: ligand concentration 1 nM; details: filed as antagonist, Compound concentration 10.0 uM
[34] = biological target: Dual specificity mitogen-activated protein kinase kinase 6 (Homo sapiens) (UniProt P52564); details: Compound concentration 1000.0 nM
[35] = biological target: Serine/threonine-protein kinase/endoribonuclease IRE1 (Homo sapiens) (UniProt O75460); details: Compound concentration 1000.0 nM
[36] = biological target: Cyclin-dependent kinase 14 (Homo sapiens) (UniProt O94921); details: Compound concentration 1000.0 nM
[37] = biological target: Serine/threonine-protein kinase SIK2 (Homo sapiens) (UniProt Q9H0K1); details: Compound concentration 1000.0 nM
[38] = biological target: Tyrosine-protein kinase JAK1 (Homo sapiens) (UniProt P23458); details: Compound concentration 1000.0 nM
[39] = biological target: Activin receptor type-2A (Homo sapiens) (UniProt P27037); details: Compound concentration 1000.0 nM
[40] = biological target: RAC-beta serine/threonine-protein kinase (Homo sapiens) (UniProt P31751); details: Compound concentration 1000.0 nM
[41] = biological target: Mitogen-activated protein kinase kinase kinase kinase 3 (Homo sapiens) (UniProt Q8IVH8); details: Compound concentration 1000.0 nM
[42] = tested on: Receptor-type tyrosine-protein kinase FLT3 (Homo sapiens), P36888 [N841I]; details: Compound concentration 1000.0 nM
[43] = biological target: Mitogen-activated protein kinase kinase kinase 5 (Homo sapiens) (UniProt Q99683); details: Compound concentration 1000.0 nM
[44] = biological target: Beta-adrenergic receptor kinase 1 (Homo sapiens) (UniProt P25098); details: Compound concentration 1000.0 nM
[45] = biological target: Tyrosine-protein kinase Lck (Homo sapiens) (UniProt P06239); details: Compound concentration 1000.0 nM

Sequence of BDNF/NT-3 growth factors receptor (Homo sapiens) (Q16620 32-822 limits assumed): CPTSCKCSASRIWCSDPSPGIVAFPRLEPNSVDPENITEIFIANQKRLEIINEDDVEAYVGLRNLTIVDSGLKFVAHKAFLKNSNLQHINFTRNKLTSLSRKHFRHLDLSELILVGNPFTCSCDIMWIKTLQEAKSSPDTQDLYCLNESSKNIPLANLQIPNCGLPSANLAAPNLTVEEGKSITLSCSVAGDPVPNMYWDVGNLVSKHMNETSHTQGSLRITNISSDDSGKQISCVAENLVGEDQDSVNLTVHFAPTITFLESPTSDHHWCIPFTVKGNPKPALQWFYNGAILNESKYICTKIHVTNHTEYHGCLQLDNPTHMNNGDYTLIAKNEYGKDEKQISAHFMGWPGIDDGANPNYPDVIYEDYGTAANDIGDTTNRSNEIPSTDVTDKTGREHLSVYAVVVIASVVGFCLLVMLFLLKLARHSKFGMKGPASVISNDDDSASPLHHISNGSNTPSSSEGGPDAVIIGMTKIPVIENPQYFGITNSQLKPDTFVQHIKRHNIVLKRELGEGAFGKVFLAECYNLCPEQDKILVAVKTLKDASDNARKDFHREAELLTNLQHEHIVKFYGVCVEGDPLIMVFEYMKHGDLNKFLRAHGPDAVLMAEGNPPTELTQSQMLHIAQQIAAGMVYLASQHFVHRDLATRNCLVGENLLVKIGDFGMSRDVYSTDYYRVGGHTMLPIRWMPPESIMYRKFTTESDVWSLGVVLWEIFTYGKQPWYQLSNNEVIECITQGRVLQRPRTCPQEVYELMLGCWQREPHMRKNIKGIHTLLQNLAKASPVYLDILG
Sequence of Serine/threonine-protein kinase/endoribonuclease IRE1 (Homo sapiens) (O75460 19-977 limits assumed): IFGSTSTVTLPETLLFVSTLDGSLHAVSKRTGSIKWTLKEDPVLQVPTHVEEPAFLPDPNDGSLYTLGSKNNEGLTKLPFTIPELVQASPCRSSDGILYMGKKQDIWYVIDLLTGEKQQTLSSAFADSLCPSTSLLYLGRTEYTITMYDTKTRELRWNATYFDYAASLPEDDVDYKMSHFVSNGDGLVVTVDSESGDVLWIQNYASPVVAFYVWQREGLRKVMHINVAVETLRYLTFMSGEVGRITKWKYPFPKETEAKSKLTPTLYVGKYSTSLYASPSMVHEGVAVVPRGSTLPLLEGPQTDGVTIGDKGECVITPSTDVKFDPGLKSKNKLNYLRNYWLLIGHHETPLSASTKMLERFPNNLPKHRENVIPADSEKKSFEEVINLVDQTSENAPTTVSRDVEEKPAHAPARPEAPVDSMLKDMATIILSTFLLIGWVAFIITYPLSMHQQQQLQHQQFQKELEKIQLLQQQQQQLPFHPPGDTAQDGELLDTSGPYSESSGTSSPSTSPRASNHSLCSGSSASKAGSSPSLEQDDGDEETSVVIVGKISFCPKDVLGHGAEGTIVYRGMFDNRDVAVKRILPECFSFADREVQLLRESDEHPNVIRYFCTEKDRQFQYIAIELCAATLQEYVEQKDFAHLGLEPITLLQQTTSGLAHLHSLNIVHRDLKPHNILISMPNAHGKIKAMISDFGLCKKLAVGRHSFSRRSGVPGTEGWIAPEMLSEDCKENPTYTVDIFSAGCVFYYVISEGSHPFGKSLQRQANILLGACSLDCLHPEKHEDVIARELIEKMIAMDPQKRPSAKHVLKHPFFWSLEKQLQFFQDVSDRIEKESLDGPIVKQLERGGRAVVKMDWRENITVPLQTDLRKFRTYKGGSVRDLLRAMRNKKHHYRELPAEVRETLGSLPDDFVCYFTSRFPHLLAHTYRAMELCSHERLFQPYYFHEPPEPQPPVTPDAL
Sequence of TGF-beta receptor type-1 (Homo sapiens) (P36897 whole entry): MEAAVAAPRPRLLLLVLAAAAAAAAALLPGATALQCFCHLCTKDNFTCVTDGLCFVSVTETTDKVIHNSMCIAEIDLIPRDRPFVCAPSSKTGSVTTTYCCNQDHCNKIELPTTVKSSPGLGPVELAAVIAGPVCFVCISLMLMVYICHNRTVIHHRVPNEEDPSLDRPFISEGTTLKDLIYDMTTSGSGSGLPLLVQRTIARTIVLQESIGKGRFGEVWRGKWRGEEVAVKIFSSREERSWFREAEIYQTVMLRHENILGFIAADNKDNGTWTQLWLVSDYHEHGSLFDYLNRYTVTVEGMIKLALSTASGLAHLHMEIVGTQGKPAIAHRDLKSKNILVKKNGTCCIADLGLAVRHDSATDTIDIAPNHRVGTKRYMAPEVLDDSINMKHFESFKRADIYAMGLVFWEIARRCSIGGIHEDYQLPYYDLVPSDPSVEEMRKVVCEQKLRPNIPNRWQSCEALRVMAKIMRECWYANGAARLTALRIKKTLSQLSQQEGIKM
Sequence of Tyrosine-protein kinase JAK1 (Homo sapiens) (P23458 whole entry): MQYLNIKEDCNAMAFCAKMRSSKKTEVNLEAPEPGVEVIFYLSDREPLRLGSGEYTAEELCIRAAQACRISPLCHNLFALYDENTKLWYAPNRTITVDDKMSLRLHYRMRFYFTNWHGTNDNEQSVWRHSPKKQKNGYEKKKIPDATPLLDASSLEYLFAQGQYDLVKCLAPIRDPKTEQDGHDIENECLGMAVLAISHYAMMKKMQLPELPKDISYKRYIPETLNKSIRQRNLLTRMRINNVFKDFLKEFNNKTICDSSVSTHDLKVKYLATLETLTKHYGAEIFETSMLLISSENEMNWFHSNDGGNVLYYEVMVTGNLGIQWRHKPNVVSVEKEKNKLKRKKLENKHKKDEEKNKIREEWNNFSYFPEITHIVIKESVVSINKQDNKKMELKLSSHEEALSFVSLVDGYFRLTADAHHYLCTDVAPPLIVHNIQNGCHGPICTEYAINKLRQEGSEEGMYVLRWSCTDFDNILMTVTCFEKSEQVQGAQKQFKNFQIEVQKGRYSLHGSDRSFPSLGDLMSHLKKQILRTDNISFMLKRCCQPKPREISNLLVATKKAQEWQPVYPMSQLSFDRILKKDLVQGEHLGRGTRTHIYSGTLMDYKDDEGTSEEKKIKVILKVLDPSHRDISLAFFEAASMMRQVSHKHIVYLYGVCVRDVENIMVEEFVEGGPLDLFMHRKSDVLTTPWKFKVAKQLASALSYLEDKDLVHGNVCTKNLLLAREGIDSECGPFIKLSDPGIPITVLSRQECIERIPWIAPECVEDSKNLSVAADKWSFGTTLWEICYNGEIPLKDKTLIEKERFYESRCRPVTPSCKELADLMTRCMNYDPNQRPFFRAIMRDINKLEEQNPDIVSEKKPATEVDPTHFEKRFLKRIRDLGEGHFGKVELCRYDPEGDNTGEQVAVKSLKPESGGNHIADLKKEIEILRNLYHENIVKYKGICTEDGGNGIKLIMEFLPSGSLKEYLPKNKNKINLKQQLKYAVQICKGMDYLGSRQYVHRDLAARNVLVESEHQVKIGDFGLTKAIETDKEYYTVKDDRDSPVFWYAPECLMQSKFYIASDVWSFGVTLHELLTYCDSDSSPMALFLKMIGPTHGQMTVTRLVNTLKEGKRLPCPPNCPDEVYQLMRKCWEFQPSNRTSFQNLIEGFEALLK
Sequence of Epidermal growth factor receptor (Homo sapiens), P00533 [UNDEFINED MUTATION] (P00533 whole entry, looked up, change not shown): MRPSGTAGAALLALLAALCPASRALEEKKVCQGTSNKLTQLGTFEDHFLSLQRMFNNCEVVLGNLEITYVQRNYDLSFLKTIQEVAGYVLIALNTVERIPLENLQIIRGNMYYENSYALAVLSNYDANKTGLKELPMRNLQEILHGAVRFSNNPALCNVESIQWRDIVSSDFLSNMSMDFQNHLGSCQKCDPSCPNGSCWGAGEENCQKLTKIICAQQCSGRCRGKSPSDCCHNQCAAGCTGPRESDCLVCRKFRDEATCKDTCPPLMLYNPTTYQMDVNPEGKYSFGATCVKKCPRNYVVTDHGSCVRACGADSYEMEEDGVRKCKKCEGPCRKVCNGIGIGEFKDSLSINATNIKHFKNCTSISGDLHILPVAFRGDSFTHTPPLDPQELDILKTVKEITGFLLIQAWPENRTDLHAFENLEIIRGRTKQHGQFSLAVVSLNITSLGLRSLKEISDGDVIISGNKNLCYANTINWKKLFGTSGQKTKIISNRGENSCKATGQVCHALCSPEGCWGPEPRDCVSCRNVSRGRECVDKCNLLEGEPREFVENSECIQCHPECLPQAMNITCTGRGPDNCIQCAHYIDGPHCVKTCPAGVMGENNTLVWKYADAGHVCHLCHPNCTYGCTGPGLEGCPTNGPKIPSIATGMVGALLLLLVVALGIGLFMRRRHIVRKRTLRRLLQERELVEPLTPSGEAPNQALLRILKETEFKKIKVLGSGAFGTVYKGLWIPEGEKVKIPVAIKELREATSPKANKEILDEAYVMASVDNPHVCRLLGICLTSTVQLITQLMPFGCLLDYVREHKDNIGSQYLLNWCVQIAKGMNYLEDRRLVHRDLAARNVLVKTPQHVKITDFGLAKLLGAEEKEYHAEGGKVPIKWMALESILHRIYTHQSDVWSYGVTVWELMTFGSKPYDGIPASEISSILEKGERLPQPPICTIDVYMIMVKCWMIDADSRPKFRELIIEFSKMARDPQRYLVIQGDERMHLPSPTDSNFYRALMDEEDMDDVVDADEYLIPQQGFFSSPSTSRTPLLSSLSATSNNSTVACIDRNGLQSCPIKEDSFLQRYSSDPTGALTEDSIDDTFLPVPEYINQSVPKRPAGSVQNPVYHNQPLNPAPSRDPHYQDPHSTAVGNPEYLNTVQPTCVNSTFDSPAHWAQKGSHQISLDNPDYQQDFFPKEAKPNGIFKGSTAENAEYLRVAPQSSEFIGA
Sequence of Dual specificity mitogen-activated protein kinase kinase 5 (Homo sapiens) (Q13163 whole entry): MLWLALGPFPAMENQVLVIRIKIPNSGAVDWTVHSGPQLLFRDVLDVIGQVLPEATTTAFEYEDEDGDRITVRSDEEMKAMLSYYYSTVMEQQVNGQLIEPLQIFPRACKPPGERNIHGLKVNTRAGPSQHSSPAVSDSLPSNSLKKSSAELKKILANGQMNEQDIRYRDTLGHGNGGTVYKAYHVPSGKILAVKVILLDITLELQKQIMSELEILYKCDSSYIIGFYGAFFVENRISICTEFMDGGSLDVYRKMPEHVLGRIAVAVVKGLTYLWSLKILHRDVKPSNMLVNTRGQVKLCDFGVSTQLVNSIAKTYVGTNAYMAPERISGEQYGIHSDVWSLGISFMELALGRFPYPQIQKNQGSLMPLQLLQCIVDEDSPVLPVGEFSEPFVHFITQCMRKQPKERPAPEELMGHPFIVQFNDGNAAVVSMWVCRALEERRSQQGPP

CO[C@H]1CC[C@H](CNc2ccc(S(=O)(=O)NC(=O)c3ccc(N4CCN(CC5=C(c6ccc(Cl)cc6)CC(C)(C)CC5)CC4)cc3Oc3cnc4[nH]ccc4c3)cc2[N+](=O)[O-])CC1 [A-1211212]
residual activity [1]: 87%
residual activity [2]: 86%
% Inhibition of Control Specific Binding (Mean n=2) [3]: -1%
residual activity [4]: 78%
residual activity [5]: 67%
inhibition [6]: 34.2%
residual activity [7]: 100%
inhibition [8]: 13.6%
residual activity [9]: 89%
residual activity [10]: 100%
residual activity [11]: 90%
residual activity [12]: 95%
residual activity [13]: 100%
residual activity [14]: 61%
residual activity [15]: 95%
residual activity [16]: 74%
residual activity [17]: 100%
residual activity [18]: 100%
% Inhibition of Control Specific Binding (Mean n=2) [19]: -20.5%
residual activity [20]: 80%
residual activity [21]: 78%
residual activity [22]: 100%
residual activity [23]: 100%
residual activity [24]: 98%
residual activity [25]: 83%
residual activity [26]: 100%
% Inhibition of Control Specific Binding (Mean n=2) [27]: 13.3%
residual activity [28]: 100%
residual activity [29]: 84%
residual activity [30]: 66%
residual activity [31]: 81%
residual activity [32]: 85%
% Inhibition of Control Specific Binding (Mean n=2) [33]: -1%
residual activity [34]: 84%
residual activity [35]: 89%
residual activity [36]: 100%
residual activity [37]: 100%
residual activity [38]: 100%
residual activity [39]: 91%
residual activity [40]: 80%
residual activity [41]: 99%
residual activity [42]: 100%
residual activity [43]: 78%
residual activity [44]: 85%
residual activity [45]: 73%

O=C(NS(=O)(=O)c1ccc(NCC2CCOCC2)c([N+](=O)[O-])c1)c1ccc(N2CCN(Cc3ccc(C(F)(F)F)cc3-c3ccc(Cl)cc3)CC2)cc1Oc1cnc2[nH]ccc2c1 [A-1210227]
residual activity [1]: 86%
residual activity [2]: 82%
% Inhibition of Control Specific Binding (Mean n=2) [3]: 10.5%
residual activity [4]: 98%
residual activity [5]: 59%
inhibition [6]: -9.16%
residual activity [7]: 89%
inhibition [8]: 8.95%
residual activity [9]: 79%
residual activity [10]: 88%
residual activity [11]: 100%
residual activity [12]: 100%
residual activity [13]: 88%
residual activity [14]: 81%
residual activity [15]: 94%
residual activity [16]: 100%
residual activity [17]: 100%
residual activity [18]: 100%
% Inhibition of Control Specific Binding (Mean n=2) [19]: -13%
residual activity [20]: 96%
residual activity [21]: 100%
residual activity [22]: 100%
residual activity [23]: 100%
residual activity [24]: 84%
residual activity [25]: 100%
residual activity [26]: 100%
% Inhibition of Control Specific Binding (Mean n=2) [27]: 6.5%
residual activity [28]: 90%
residual activity [29]: 93%
residual activity [30]: 75%
residual activity [31]: 100%
residual activity [32]: 96%
% Inhibition of Control Specific Binding (Mean n=2) [33]: -4.9%
residual activity [34]: 97%
residual activity [35]: 90%
residual activity [36]: 100%
residual activity [37]: 100%
residual activity [38]: 100%
residual activity [39]: 93%
residual activity [40]: 100%
residual activity [41]: 92%
residual activity [42]: 100%
residual activity [43]: 82%
residual activity [44]: 91%
residual activity [45]: 100%
